# Data from patent publication US4916065A (priority 1988, dated 1990).
# Like-named read-outs stand apart in the source and are kept apart here.
# Columns and labels:
# [1] = system: Staphylococcus aureus 209P; assay: Antibacterial MIC, serial agar dilution; assay type: cell-based; settings: aerobic, nutrient agar
# [2] = system: Staphylococcus aureus Smith; assay: Antibacterial MIC, serial agar dilution; assay type: cell-based; settings: aerobic, nutrient agar
# [3] = system: Staphylococcus aureus A20234; assay: Antibacterial MIC, serial agar dilution; assay type: cell-based; settings: aerobic, nutrient agar, kanamycin-resistant
# [4] = system: Staphylococcus aureus BX1633; assay: Antibacterial MIC, serial agar dilution; assay type: cell-based; settings: aerobic, nutrient agar, ampicillin-resistant
# [5] = system: Staphylococcus aureus A15097; assay: Antibacterial MIC, serial agar dilution; assay type: cell-based; settings: aerobic, nutrient agar, methicillin-resistant
# [6] = system: Staphylococcus epidermidis A22152; assay: Antibacterial MIC, serial agar dilution; assay type: cell-based; settings: aerobic, nutrient agar, kanamycin-resistant
# [7] = system: Enterococcus faecalis A9612; assay: Antibacterial MIC, serial agar dilution; assay type: cell-based; settings: aerobic, nutrient agar
# Micrococcus luteus 1001 = assay: Antibacterial MIC, serial agar dilution; assay type: cell-based; settings: aerobic, nutrient agar
# Escherichia coli NIHJ = assay: Antibacterial MIC, serial agar dilution; assay type: cell-based; settings: aerobic, nutrient agar
# Escherichia coli Juhl = assay: Antibacterial MIC, serial agar dilution; assay type: cell-based; settings: aerobic, nutrient agar
# Escherichia coli A20665 = assay: Antibacterial MIC, serial agar dilution; assay type: cell-based; settings: aerobic, nutrient agar, kanamycin-resistant
# Escherichia coli A9624 = assay: Antibacterial MIC, serial agar dilution; assay type: cell-based; settings: aerobic, nutrient agar, kanamycin-resistant
# [8] = system: Escherichia coli A20341-1; assay: Antibacterial MIC, serial agar dilution; assay type: cell-based; settings: A203411, aerobic, nutrient agar, ampicillin-resistant
# [9] = system: Enterobacter cloacae A9659; assay: Antibacterial MIC, serial agar dilution; assay type: cell-based; settings: aerobic, nutrient agar
# [10] = system: Klebsiella pneumoniae D11; assay: Antibacterial MIC, serial agar dilution; assay type: cell-based; settings: aerobic, nutrient agar
# [11] = system: Klebsiella pneumoniae A20680; assay: Antibacterial MIC, serial agar dilution; assay type: cell-based; settings: aerobic, nutrient agar, kanamycin-resistant
# [12] = system: Pseudomonas aeruginosa A9930; assay: Antibacterial MIC, serial agar dilution; assay type: cell-based; settings: aerobic, nutrient agar
# [13] = system: Serratia marcescens A20222; assay: Antibacterial MIC, serial agar dilution; assay type: cell-based; settings: aerobic, nutrient agar
# [14] = system: Clostridium perfringens A9635; assay: microbe, parasite or virus in culture; assay type: cell-based
# [15] = system: Propionibacterium acnes A21933; assay: Antibacterial MIC, serial agar dilution; assay type: cell-based; settings: Cutibacterium acnes, anaerobic, GAM agar
# [16] = system: Peptostreptococcus anaerobius A21905; assay: Antibacterial MIC, serial agar dilution; assay type: cell-based
# [17] = system: Bacteroides fragilis A22534; assay: Antibacterial MIC, serial agar dilution; assay type: cell-based
# Canidia albicans IAM4888 = assay: Antifungal MIC, Sabouraud dextrose agar; assay type: cell-based
# Canidia albicans A9540 = assay: Antifungal MIC, Sabouraud dextrose agar; assay type: cell-based
# [18] = system: Cryptococcus neoformans D49; assay: Antifungal MIC, Sabouraud dextrose agar; assay type: cell-based
# [19] = system: Cryptococcus neoformans IAM4514; assay: Antifungal MIC, Sabouraud dextrose agar; assay type: cell-based
# [20] = system: Aspergillus fumigatus IAM2034; assay: Antifungal MIC, Sabouraud dextrose agar; assay type: cell-based
# [21] = system: Aspergillus flavus FA21436; assay: Antifungal MIC, Sabouraud dextrose agar; assay type: cell-based
# [22] = system: Fusarium moniliforme A2284; assay: Antifungal MIC, Sabouraud dextrose agar; assay type: cell-based; settings: Fusarium verticillioides
# [23] = system: Trichophyton mentagrophytes D155; assay: Antifungal MIC, Sabouraud dextrose agar; assay type: cell-based
# [24] = system: Trichophyton mentagrophytes #4329; assay: Antifungal MIC, Sabouraud dextrose agar; assay type: cell-based
# Mucor spinosus IF05317 = assay: Antifungal MIC, Sabouraud dextrose agar; assay type: cell-based
# [25] = system: aerobic and anaerobic bacteria; assay type: cell-based
# fungi = assay: In vitro antifungal activity, overall spectrum; assay type: cell-based; settings: all organisms tested except Cryptococcus neoformans
# B16-F10 = assay: In vitro cytotoxicity; assay type: cell-based, murine; settings: Mus musculus, 72 hours, neutral red, 540 nm
# Moser = assay: In vitro cytotoxicity; assay type: cell-based; settings: Homo sapiens; 72 hours, neutral red, 540 nm
# P388 leukemia = assay: Antitumor activity against P388 leukemia (ip); assay type: in vivo, mice; settings: for Body weight change on day 4 / MST (median survival time) / T/C: QD × 3, ip
# Solubility = assay type: physicochemical; settings: organic solvents such as chloroform, methanol and ethanol
# Piricularia oryzae D91 = assay: microbe, parasite or virus in culture; assay type: cell-based
# [26] = system: Petriellidium boydii IF08073; assay: Antifungal MIC, Sabouraud dextrose agar; assay type: cell-based; settings: Scedosporium boydii
# [27] = system: Clostridium difficile A21675; assay: Antibacterial MIC, serial agar dilution; assay type: cell-based; settings: Clostridioides difficile, anaerobic, GAM agar, clindamycin-resistant
# [28] = system: Bacteroides fragilis A22693; assay: Antibacterial MIC, serial agar dilution; assay type: cell-based; settings: anaerobic, GAM agar
smiles,measurement,setting,value
COC1=C(C(=O)O)C(C)C23OC24c2cc(OC(C)=O)c5c(c2NC3C#C/C=C\C#CC14)C(=O)c1c(OC(C)=O)ccc(OC(C)=O)c1C5=O (stereo not shown) [BU-3420T acetate],MIC,[1],0.0063 ng/mL
same,MIC,[2],0.0063 ng/mL
same,MIC,[3],0.0063 ng/mL
same,MIC,[4],0.0063 ng/mL
same,MIC,[5],0.0063 ng/mL
same,MIC,[6],0.013 ng/mL
same,MIC,[7],0.1 ng/mL
same,MIC,Micrococcus luteus 1001,0.2 ng/mL
same,MIC,Escherichia coli NIHJ,6.3 ng/mL
same,MIC,Escherichia coli Juhl,6.3 ng/mL
same,MIC,Escherichia coli A20665,13 ng/mL
same,MIC,Escherichia coli A9624,6.3 ng/mL
same,MIC,[8],25 ng/mL
same,MIC,[9],6.3 ng/mL
same,MIC,[10],0.8 ng/mL
same,MIC,[11],13 ng/mL
same,MIC,[12],6.3 ng/mL
same,MIC,[13],6.3 ng/mL
same,MIC,[14],13 ng/mL
same,MIC,[15],13 ng/mL
same,MIC,[16],25 ng/mL
same,MIC,[17],50 ng/mL
same,MIC,Canidia albicans IAM4888,400 ng/mL
same,MIC,Canidia albicans A9540,200 ng/mL
same,MIC,[18],800 ng/mL
same,MIC,[19],800 ng/mL
same,MIC,[20],< 50 ng/mL
same,MIC,[21],400 ng/mL
same,MIC,[22],< 50 ng/mL
same,MIC,[23],400 ng/mL
same,MIC,[24],800 ng/mL
same,MIC,Mucor spinosus IF05317,200 ng/mL
same,activity against Gram-negative organisms,"[25]; Gram-negative organisms, versus Gram-positive",a little less susceptible
same,activity against Gram-positive aerobic bacteria,[25]; Gram-positive aerobic bacteria,intensely potent activity
same,activity against anaerobic Gram-positive and negative bacteria versus clindamycin,[25]; anaerobic bacteria,much more active than clindamycin
same,activity against certain kanamycin- and clindamycin-resistant bacteria,[25]; kanamycin- and clindamycin-resistant bacteria,susceptible to both compounds
same,antifungal activity versus amphotericin B,fungi,significantly more potent than amphotericin B
same,IC50,B16-F10,0.7 ng/mL
same,IC50,Moser,0.003 ng/mL
same,Body weight change on day 4,P388 leukemia; 0.5 mg/kg/day,-0.5 g
same,MST (median survival time),P388 leukemia; 0.5 mg/kg/day,13.5 days
same,T/C,P388 leukemia; 0.5 mg/kg/day,135%
same,Body weight change on day 4,P388 leukemia; 1.0 mg/kg/day,-0.8 g
same,MST (median survival time),P388 leukemia; 1.0 mg/kg/day,11.0 days
same,T/C,P388 leukemia; 1.0 mg/kg/day,110%
same,maximum T/C value,"P388 leukemia; P388, ip, QD × 3",135%
same,solubility in organic solvents compared with BU-3420T,Solubility,much improved solubility
"C[C@@H]1[C@H](O)[C@@H](C)/C=C/C=C/C=C/C=C/C=C/C=C/C=C/[C@H](O[C@@H]2O[C@H](C)[C@@H](O)[C@H](N)[C@@H]2O)C[C@@H]2O[C@](O)(C[C@@H](O)C[C@@H](O)[C@H](O)CC[C@@H](O)C[C@@H](O)CC(=O)O[C@H]1C)C[C@H](O)[C@H]2C(=O)O [Amphotericin B, reference compound]",MIC,[18],< 200 ng/mL
same,MIC,[19],< 200 ng/mL
same,MIC,[21],3100 ng/mL
same,MIC,[22],12500 ng/mL
same,MIC,Piricularia oryzae D91,3100 ng/mL
same,MIC,[24],3100 ng/mL
same,MIC,[26],> 100000 ng/mL
same,MIC,Mucor spinosus IF05317,800 ng/mL
"CCC[C@@H]1C[C@@H](C(=O)N[C@@H]([C@H]2O[C@H](SC)[C@H](O)[C@@H](O)[C@H]2O)[C@H](C)Cl)N(C)C1 [Clindamycin, reference compound]",MIC,[27],> 100000 ng/mL
same,MIC,[14],25 ng/mL
same,MIC,[15],400 ng/mL
same,MIC,"[16]; anaerobic, GAM agar, read-out: MIC",400 ng/mL
same,MIC,[28],50 ng/mL
same,MIC,"[17]; anaerobic, GAM agar, ampicillin-resistant, read-out: MIC",800 ng/mL
